Measured values published in US20250154121A1, “CYCLIC(ALKYL)(AMINO)ALKOXY-SUBSTITUTED ARYL-PYRONE COMPOUND AND USE THEREOF” (priority 2022, published 2025).
Several values for one entry are separate records, joined by “and”; a condition that tells them apart may be missing. Equal values may be shown once. Read-outs that look alike come from different tables or passages of the source.

Key:
ACE2 receptor = ACE2 receptor (Homo sapiens, UniProt Q9BYF1); assay: ACE2-293T/CMC cell membrane chromatography binding; conditions: ACE2-293T/CMC column
Chain of ACE2 receptor (Q9BYF1 18-805): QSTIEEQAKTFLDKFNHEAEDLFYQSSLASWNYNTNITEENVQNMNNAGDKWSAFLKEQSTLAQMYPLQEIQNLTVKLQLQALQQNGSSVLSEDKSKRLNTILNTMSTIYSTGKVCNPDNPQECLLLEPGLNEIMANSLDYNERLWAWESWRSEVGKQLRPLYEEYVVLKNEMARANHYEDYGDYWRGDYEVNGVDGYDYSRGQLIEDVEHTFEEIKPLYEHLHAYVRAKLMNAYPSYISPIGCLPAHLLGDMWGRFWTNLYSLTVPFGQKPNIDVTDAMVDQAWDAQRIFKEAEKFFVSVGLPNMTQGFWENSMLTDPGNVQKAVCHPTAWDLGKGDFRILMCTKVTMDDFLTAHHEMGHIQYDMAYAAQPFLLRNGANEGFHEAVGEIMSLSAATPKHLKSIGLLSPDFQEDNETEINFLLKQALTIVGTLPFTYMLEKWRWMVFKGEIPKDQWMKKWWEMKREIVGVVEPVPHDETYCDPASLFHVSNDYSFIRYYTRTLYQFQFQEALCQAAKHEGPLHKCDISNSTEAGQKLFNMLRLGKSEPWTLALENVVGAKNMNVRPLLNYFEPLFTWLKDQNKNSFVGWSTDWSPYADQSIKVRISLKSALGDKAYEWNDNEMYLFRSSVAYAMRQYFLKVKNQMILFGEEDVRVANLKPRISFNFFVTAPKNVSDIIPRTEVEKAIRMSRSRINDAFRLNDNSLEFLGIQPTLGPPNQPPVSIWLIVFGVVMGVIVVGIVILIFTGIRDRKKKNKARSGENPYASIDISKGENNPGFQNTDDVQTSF

[1] = test system: Human Coronavirus 229E (HCoV-229E); assay: animal or person; type: in vivo
[2] = test system: Sendai strain of parainfluenza virus; type: in vivo
[3] = test system: Influenza A (H1N1) virus PR8 strain; assay: Mouse pneumonia model infected with influenza A (H1N1) virus PR8 strain (lung index); type: in vivo, ICR mice; conditions: Table 3 (Example 14)
Description: (§1) ICR mice were taken and randomly divided by weight class: normal control group, model control group, oseltamivir control group, compound 4, compound F4, compound F5, compound 5, and compound 7 according to their weight class, and each drug was given in two dosage groups (10 mice in each group). Except for the normal control group, mice were slightly anesthetized with ether and infected with 15 LD50 H1N1 influenza virus liquid (FM1/PR8 strain) by nasal drops (30 μl per each animal). The administration was started on the day of infection at 0.2 ml/10 g by gavage each time once a day for 4 days, and the normal control and model control groups were gavaged with distilled water under the same conditions. The mice were weighed and dissected on Day 5, and lung was weighed to calculate lung index and lung index inhibition. The results were statistically processed using t-test for comparison between groups.
(§2) ICR mice were taken and randomly divided into 9 groups according to the body weight: a normal control group, model control group, oseltamivir control group, and two dosage groups of Compound 9, Compound 12 and Compound 2, 10 mice in each group. Except the normal control group, mice were slightly anesthetized with ether and infected with 15 LD50 H1N1/PR8 influenza virus liquid by nasal drops at 30 μl per mouse. The administration was started on the day of infection, at 0.2 ml/10 g each time by gavage once a day for 4 days, and the normal control and model control groups were gavaged with distilled water under the same conditions. The mice were weighed and dissected on Day 5, and lungs were weighed to calculate lung index and lung index inhibition. The results were statistically processed using t-test for comparison between groups.

human coronavirus OC43 = type: in vivo; conditions: Table 6 (Example 17)
[4] = Acute toxicity test in mice (single gavage, 14-day observation); type: in vivo; conditions: for mortality rate of animals: 14 days observation
Description: Seventy ICR mice, weighing 17-21 g, were randomly divided into 7 groups according to fasting body weight: a normal control group and 6 dose groups of 475, 633, 844, 1125, 1500 and 2000 mg of the test drug (compound 4)/kg, 10 mice in each group, 50/50 male and female. After fasting for about 15 h, each dosing group was administered once by gavage in a volume of 40 ml/kg, and the control group was gavaged with an equal volume of 0.5% sodium carboxymethylcellulose solution once/day, and the animals were observed continuously for 14 days after administration of the drug to observe the death of the animals.
Thirty ICR mice, weighing 17-21 g, were randomly divided into three groups according to their fasting body weight: a normal control group and 2000 mg and 4000 mg of test drug (Compound 12)/kg dose group, 10 mice in each group, 50/50 male and female. After fasting for about 15 h, each dosing group was given the drug once by gavage in a volume of 40 ml/kg, and the control group was given an equal volume of 0.5% sodium carboxymethylcellulose solution by gavage once/day, and the deaths of the animals were observed continuously for 14 days after the administration of the drug.

[5] = test system: Influenza A (H1N1) virus FM1 strain; assay: Mouse pneumonia model infected with influenza A (H1N1) virus FM1 strain (lung index); type: in vivo, ICR mice
Description: ICR mice were taken and randomly divided into: normal control group, model control group, ribavirin control group, compound 4, compound F1, compound F2, and compound F3 according to their weight class, and each drug was given in two dosage groups (10 mice in each group). Except for the normal control group, mice were slightly anesthetized with ether and infected with 15 LD50 H1N1 influenza virus liquid FM1 strain by nasal drops (30 μl per animal). The administration was started on the day of infection at 0.2 ml/10 g by gavage each time once a day for 4 days, and the normal control and model control groups were gavaged with distilled water under the same conditions. The mice were weighed and dissected on Day 5, and the lung was weighed to calculate lung index and lung index inhibition. The results were statistically processed using t-test for comparison between groups.
as §1, §2

SARS-CoV-2 = assay: Antiviral CPE assay against SARS-CoV-2 in VeroE6 cells; type: cell-based; conditions: 100 TCID50, read-out: Inhibition rate (%) of viral CPE
[6] = Table 7 (Example 18), 3.75 mg/kg/d gavage for 4 days
[7] = Table 7 (Example 18), 7.5 mg/kg/d gavage for 4 days
[8] = Table 7 (Example 18), 15 mg/kg/d gavage for 4 days
[9] = Table 11 (Example 24), 7.5 mg/kg/d gavage for 4 days
[10] = Table 11 (Example 24), 15 mg/kg/d gavage for 4 days
[11] = 7.5 mg/kg gavage once a day for 4 days
[12] = dose groups of 1125 mg drug/kg and above

**Q.** With O=c1c(-c2ccccc2)coc2cc(OCCNC3CC3)ccc12 [Compound 4] as the compound, how does the Kd (ACE2 receptor) read?
**A.** 1070 nM

**Q.** What about the inhibition in vivo at 40 mg/kg/day ([1]; Human coronavirus 229E, in Mus musculus, po, 96 h, Table 4 (Example 15), 40 mg/kg/d gavage for 4 days, read-out: inhibition rate (%)) of the same compound?
**A.** 41.9%

**Q.** And the inhibition in vivo at 50 mg/kg/day ([1]; Human coronavirus 229E, in Mus musculus, po, 96 h, Table 4 (Example 15), 50 mg/kg/d gavage for 4 days, read-out: inhibition rate (%))?
**A.** 41%

**Q.** And the inhibition in vivo at 7.5 mg/kg/day ([1]; Human coronavirus 229E, in Mus musculus, po, 96 h, Table 5 (Example 16), 7.5 mg/kg/d gavage for 4 days, read-out: inhibition rate (%))?
**A.** 44.3%

**Q.** What about the inhibition in vivo at 15 mg/kg/day ([1]; Human coronavirus 229E, in Mus musculus, po, 96 h, Table 5 (Example 16), 15 mg/kg/d gavage for 4 days, read-out: inhibition rate (%)) of the same compound?
**A.** 76.5%

**Q.** And the inhibition in vivo at 30 mg/kg/day ([1]; Human coronavirus 229E, in Mus musculus, po, 96 h, Table 5 (Example 16), 30 mg/kg/d gavage for 4 days, read-out: inhibition rate (%))?
**A.** 86.5%

**Q.** What about the inhibition in vivo at 7.5 mg/kg/day ([1]; Human coronavirus 229E, in Mus musculus, po, 96 h, Table 10 (Example 23), 7.5 mg/kg/d gavage for 4 days, read-out: inhibition rate (%)) of the same compound?
**A.** 50%

**Q.** And the lung index ([1]; Table 4 (Example 15), 40 mg/kg/d gavage for 4 days)?
**A.** 0.76 ± 0.02 g lung weight × 100/g body weight

**Q.** And the lung index ([1]; Table 4 (Example 15), 50 mg/kg/d gavage for 4 days)?
**A.** 0.76 ± 0.08 g lung weight × 100/g body weight

**Q.** And the lung index ([1]; Table 5 (Example 16), 7.5 mg/kg/d gavage for 4 days)?
**A.** 0.71 ± 0.11 g lung weight × 100/g body weight

**Q.** What about the lung index ([1]; Table 5 (Example 16), 15 mg/kg/d gavage for 4 days) of the same compound?
**A.** 0.67 ± 0.08 g lung weight × 100/g body weight

**Q.** And the lung index ([1]; Table 5 (Example 16), 30 mg/kg/d gavage for 4 days)?
**A.** 0.66 ± 0.05 g lung weight × 100/g body weight

**Q.** And the lung index ([1]; Table 10 (Example 23), 7.5 mg/kg/d gavage for 4 days)?
**A.** 0.81 ± 0.03 g lung weight × 100/g body weight

**Q.** And the “inhibition rate %” value [2, 6]?
**A.** 18.11%

**Q.** And the lung index [2, 6]?
**A.** 0.73 ± 0.07 lung weight/100 g body weight

**Q.** And the “inhibition rate %” value [2, 7]?
**A.** 26.20%

**Q.** And the lung index [2, 7]?
**A.** 0.72 ± 0.05 lung weight/100 g body weight

**Q.** What about the “inhibition rate %” value [2, 8] of the same compound?
**A.** 46.39%

**Q.** What about the lung index [2, 8] of the same compound?
**A.** 0.70 ± 0.05 lung weight/100 g body weight

**Q.** And the inhibition rate % [2, 9]?
**A.** 54.48%

**Q.** What about the lung index [2, 9] of the same compound?
**A.** 0.77 ± 0.04 Lung weight * 100/body weight

**Q.** And the inhibition rate % [2, 10]?
**A.** 45.45%

**Q.** And the lung index [2, 10]?
**A.** 0.78 ± 0.04 Lung weight * 100/body weight

**Q.** What about the “inhibition rate %” value [3, 11] of the same compound?
**A.** 23.91%

**Q.** What about the lung index [3, 11] of the same compound?
**A.** 0.98 ± 0.11

**Q.** And the lung index ([3]; 15 mg/kg gavage once a day for 4 days)?
**A.** 0.83 ± 0.10

**Q.** What about the “inhibition rate %” value ([3]; 15 mg/kg gavage once a day for 4 days, 15 mg/kg) of the same compound?
**A.** 54.04% and 60.27%

**Q.** What about the “inhibition rate %” value (human coronavirus OC43; 3.75 mg/kg/d gavage for 4 days) of the same compound?
**A.** 33.28%

**Q.** And the lung index (human coronavirus OC43; 3.75 mg/kg/d gavage for 4 days)?
**A.** 0.81 ± 0.08 g lung weight × 100/g body weight

**Q.** And the “inhibition rate %” value (human coronavirus OC43; 7.5 mg/kg/d gavage for 4 days)?
**A.** 32.42%

**Q.** And the lung index (human coronavirus OC43; 7.5 mg/kg/d gavage for 4 days)?
**A.** 0.82 ± 0.05 g lung weight × 100/g body weight

**Q.** And the “inhibition rate %” value (human coronavirus OC43; 15 mg/kg/d gavage for 4 days)?
**A.** 47.43%

**Q.** What about the lung index (human coronavirus OC43; 15 mg/kg/d gavage for 4 days) of the same compound?
**A.** 0.79 ± 0.10 g lung weight × 100/g body weight

**Q.** What about the “mortality rate of animals” value ([4]; 475 mg/kg single gavage) of the same compound?
**A.** 0%

**Q.** What about the “mortality rate of animals” value ([4]; 633 mg/kg single gavage) of the same compound?
**A.** 0%

**Q.** And the “mortality rate of animals” value ([4]; 844 mg/kg single gavage)?
**A.** 0%

**Q.** What about the “mortality rate of animals” value ([4]; 1125 mg/kg single gavage) of the same compound?
**A.** 20%

**Q.** What about the “mortality rate of animals” value ([4]; 1500 mg/kg single gavage) of the same compound?
**A.** 80%

**Q.** What about the “mortality rate of animals” value ([4]; 2000 mg/kg single gavage) of the same compound?
**A.** 100%

**Q.** What about the LD50 ([4]; Bliss method, single gavage, mice) of the same compound?
**A.** 1299.054 mg of drug/kg

**Q.** And the “maximum non-adverse effect dose” value ([4]; both, ICR, mouse, in vivo, 14 days)?
**A.** 475 mg of drug/kg

**Q.** What about the “peak of the deaths after the drug” value [4, 12] of the same compound?
**A.** 24 to 48 h

**Q.** What about the “time of animal deaths after the drug” value [4, 12] of the same compound?
**A.** ≤ 4 days

**Q.** And the maximum non-lethal dose ([4]; single gavage, mice)?
**A.** 844 mg of drug/kg

**Q.** What about the inhibition in vivo at 25 mg/kg ([5]; Influenza A virus, H1N1, po, 96 h, Table 1 (Example 13), 25 mg/kg gavage once a day for 4 days, read-out: inhibition rate (%)) of the same compound?
**A.** 23.7%

**Q.** What about the inhibition in vivo at 50 mg/kg ([5]; Influenza A virus, H1N1, po, 96 h, Table 1 (Example 13), 50 mg/kg gavage once a day for 4 days, read-out: inhibition rate (%)) of the same compound?
**A.** 39.3%

**Q.** And the inhibition in vivo at 20 mg/kg ([5]; Influenza A virus, H1N1, po, 96 h, Table 2 (Example 14), 20 mg/kg gavage once a day for 4 days, read-out: inhibition rate (%))?
**A.** 15.1%

**Q.** What about the inhibition in vivo at 40 mg/kg ([5]; Influenza A virus, H1N1, po, 96 h, Table 2 (Example 14), 40 mg/kg gavage once a day for 4 days, read-out: inhibition rate (%)) of the same compound?
**A.** 54%

**Q.** What about the lung index ([5]; Table 1 (Example 13), 25 mg/kg gavage once a day for 4 days) of the same compound?
**A.** 1.09 ± 0.13

**Q.** And the lung index ([5]; Table 1 (Example 13), 50 mg/kg gavage once a day for 4 days)?
**A.** 1.01 ± 0.12

**Q.** And the lung index ([5]; Table 2 (Example 14), 20 mg/kg gavage once a day for 4 days)?
**A.** 1.04 ± 0.12

**Q.** What about the lung index ([5]; Table 2 (Example 14), 40 mg/kg gavage once a day for 4 days) of the same compound?
**A.** 0.89 ± 0.20

**Q.** And the inhibition at 1.95 µg/mL (SARS-CoV-2; Severe acute respiratory syndrome coronavirus 2, Vero C1008, drug concentration 1.95 μg/mL)?
**A.** 6.67 ± 2.89%

**Q.** What about the inhibition at 3.9 µg/mL (SARS-CoV-2; Severe acute respiratory syndrome coronavirus 2, Vero C1008, drug concentration 3.9 μg/mL) of the same compound?
**A.** 25 ± 5%

**Q.** And the inhibition at 7.8 µg/mL (SARS-CoV-2; Severe acute respiratory syndrome coronavirus 2, Vero C1008, drug concentration 7.8 μg/mL)?
**A.** 76.7 ± 2.89%

**Q.** And the inhibition at 15.6 µg/mL (SARS-CoV-2; Severe acute respiratory syndrome coronavirus 2, Vero C1008, drug concentration 15.6 μg/mL)?
**A.** 90 ± 5%
